PubChem BioAssay (NCI)
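At the GI50, growth is halved. TGI marks complete inhibition of growth.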

What was measured:
Test in all cases: NCI-60 cell line screen, 384-well format
HOP-92 NSCLC = test system: HOP-92 NSCLC
SF-295 CNS = test system: SF-295 CNS
HOP-62 NSCLC = test system: HOP-62 NSCLC
BT-549 breast = test system: BT-549 breast
RPMI-8226 leukemia = test system: RPMI-8226 leukemia
SF-268 CNS = test system: SF-268 CNS
HS 578T breast = test system: HS 578T breast
SNB-75 CNS = test system: SNB-75 CNS
A549 NSCLC = test system: A549 NSCLC
RXF 393 renal = test system: RXF 393 renal
HL-60(TB) leukemia = test system: HL-60(TB) leukemia
M14 melanoma = test system: M14 melanoma
HT29 colon = test system: HT29 colon
NCI-H226 lung = test system: NCI-H226 lung
SK-MEL-28 melanoma = test system: SK-MEL-28 melanoma
NCI-H23 lung = test system: NCI-H23 lung
SR leukemia = test system: SR leukemia
SW-620 colon = test system: SW-620 colon
CAKI-1 renal = test system: CAKI-1 renal
KM12 colon = test system: KM12 colon
MALME-3M melanoma = test system: MALME-3M melanoma
MCF7 breast = test system: MCF7 breast
SF-539 CNS = test system: SF-539 CNS
MDA-MB-231 breast = test system: MDA-MB-231 breast
COLO 205 colon = test system: COLO 205 colon
NCI-H322M lung = test system: NCI-H322M lung
OVCAR-8 ovarian = test system: OVCAR-8 ovarian

Q: How did the GI50 (HOP-92 NSCLC) turn out when `Cc1cc(Nc2ncc(F)c(N[C@H]3[C@@H](C(N)=O)[C@@H]4C=C[C@H]3C4)n2)ccc1N1CCN(C)CC1` was run?
A: 15.6 nM

Q: What about the TGI (HOP-92 NSCLC) of the same molecule?
A: 184 nM

Q: What about the GI50 (SF-295 CNS) of the same molecule?
A: 21.8 nM

Q: And the TGI (SF-295 CNS)?
A: 276 nM

Q: What about the GI50 (HOP-62 NSCLC) of the same molecule?
A: 25 nM

Q: What about the TGI (HOP-62 NSCLC) of the same molecule?
A: 237 nM

Q: And the GI50 (BT-549 breast)?
A: 14.6 nM

Q: And the TGI (BT-549 breast)?
A: 51.5 nM

Q: What about the GI50 (RPMI-8226 leukemia) of the same molecule?
A: < 10 nM

Q: And the TGI (RPMI-8226 leukemia)?
A: < 10 nM

Q: And the GI50 (SF-268 CNS)?
A: 73.5 nM

Q: And the TGI (SF-268 CNS)?
A: 866 nM

Q: What about the GI50 (HS 578T breast) of the same molecule?
A: 12.6 nM

Q: What about the TGI (HS 578T breast) of the same molecule?
A: 95.6 nM

Q: What about the GI50 (SNB-75 CNS) of the same molecule?
A: 15.2 nM

Q: And the TGI (SNB-75 CNS)?
A: 119 nM

Q: What about the GI50 (A549 NSCLC) of the same molecule?
A: 20.1 nM

Q: And the TGI (A549 NSCLC)?
A: 3250 nM

Q: And the GI50 (RXF 393 renal)?
A: 30.5 nM

Q: What about the TGI (RXF 393 renal) of the same molecule?
A: 294 nM

Q: What about the GI50 (HL-60(TB) leukemia) of the same molecule?
A: < 10 nM

Q: What about the TGI (HL-60(TB) leukemia) of the same molecule?
A: 1030 nM

Q: And the GI50 (M14 melanoma)?
A: < 10 nM

Q: What about the TGI (M14 melanoma) of the same molecule?
A: 2100 nM

Q: And the GI50 (HT29 colon)?
A: 44.4 nM

Q: And the TGI (HT29 colon)?
A: 1140 nM

Q: What about the GI50 (NCI-H226 lung) of the same molecule?
A: 25.7 nM

Q: What about the TGI (NCI-H226 lung) of the same molecule?
A: 661 nM

Q: What about the GI50 (SK-MEL-28 melanoma) of the same molecule?
A: 1210 nM

Q: And the TGI (SK-MEL-28 melanoma)?
A: 2550 nM

Q: And the GI50 (NCI-H23 lung)?
A: 35.9 nM

Q: And the TGI (NCI-H23 lung)?
A: 1160 nM

Q: What about the GI50 (SR leukemia) of the same molecule?
A: < 10 nM

Q: What about the TGI (SR leukemia) of the same molecule?
A: < 10 nM

Q: What about the GI50 (SW-620 colon) of the same molecule?
A: 26.2 nM

Q: What about the TGI (SW-620 colon) of the same molecule?
A: 1500 nM

Q: And the GI50 (CAKI-1 renal)?
A: < 10 nM

Q: And the TGI (CAKI-1 renal)?
A: 1200 nM

Q: And the GI50 (KM12 colon)?
A: 173 nM

Q: What about the TGI (KM12 colon) of the same molecule?
A: 1500 nM

Q: What about the GI50 (MALME-3M melanoma) of the same molecule?
A: < 10 nM

Q: And the TGI (MALME-3M melanoma)?
A: 1340 nM

Q: And the GI50 (MCF7 breast)?
A: 436 nM

Q: And the TGI (MCF7 breast)?
A: 2140 nM

Q: What about the GI50 (SF-539 CNS) of the same molecule?
A: 24.8 nM

Q: What about the TGI (SF-539 CNS) of the same molecule?
A: 138 nM

Q: And the GI50 (MDA-MB-231 breast)?
A: 26 nM

Q: And the TGI (MDA-MB-231 breast)?
A: 1570 nM

Q: What about the GI50 (COLO 205 colon) of the same molecule?
A: < 10 nM

Q: And the TGI (COLO 205 colon)?
A: < 10 nM

Q: What about the GI50 (NCI-H322M lung) of the same molecule?
A: 766 nM

Q: And the TGI (NCI-H322M lung)?
A: 2260 nM

Q: What about the GI50 (OVCAR-8 ovarian) of the same molecule?
A: 88 nM

Q: What about the TGI (OVCAR-8 ovarian) of the same molecule?
A: 385 nM
